Earlier results, collected in US12396997B2, “Methods of treatment with an iboga alkaloid” (priority 2022, dated 2025).

System: N-methyl-D-aspartate, kappa and mu opioid, sigma-1 and -2, nicotinic acetylcholine, serotonin transporter, and dopamine transporter
Details: literature; cited from earlier work

## CC[C@H]1CC2C[C@H]3c4[nH]c5ccc(O)cc5c4CCN(C2)C13 [noribogaine]
  Affinity for neurotransmitter receptors: moderate-to-weak affinity
